Reference: ChEMBL document CHEMBL3244073, “1,2,4-Triazole amino nucleosides. 1-beta-D-3'-Amino-3'-deoxyribofuranosyl-1,2,4-triazole-3-carboxamide and related nucleosides” (1977)
The source made the active and inactive calls. The rule behind the calls is not given here.

Test system: Vaccinia virus
Experiment: Antiviral activity against Vaccinia virus Lederle Chorioallantoic assessed as inhibition of virus-induced cytopathogenicity
Assay type: functional, organism-based
Details: Orthopoxvirus vaccinia

Row | SMILES | Activity
1 | NC(=O)c1ncnn1[C@@H]1O[C@H](CO)[C@@H](N)[C@H]1O | inactive
2 | NNC(=O)c1ncn([C@@H]2O[C@H](CO)[C@@H](N)[C@H]2O)n1 | inactive
3 | N/N=C(/N)c1ncn([C@@H]2O[C@H](CO)[C@@H](N)[C@H]2O)n1 | inactive
4 | N/C(=N/O)c1ncn([C@@H]2O[C@H](CO)[C@@H](N)[C@H]2O)n1 | inactive
5 | NC(=O)c1ncn([C@@H]2O[C@H](CO)[C@@H](N)[C@H]2O)n1 | inactive
6 | N[C@H]1[C@@H](O)[C@H](n2cnc(C(=O)NO)n2)O[C@@H]1CO | inactive
